Results published in BigSolDB 2.1.

CC(C)(C)NSc1nc2ccccc2s1
solubility (mole fraction)
Conditions	273.2 K	278.2 K	283.2 K	288.2 K	293.2 K	298.2 K	303.2 K	308.2 K	313.2 K
in ethanol	0.00951	0.0111	0.0133	0.0157	0.0198	0.0236	0.0278	0.0344	0.0419
in isopropanol	0.00844	0.00938	0.0122	0.015	0.0176	0.0208	0.025	0.0298	0.0352
in methanol	0.00591	0.00707	0.00834	0.00991	0.0123	0.0148	0.0178	0.0219	0.0266
in n-butanol	0.0177	0.0202	0.0237	0.028	–	0.0375	0.0444	0.0524	0.061
in tert-butylamine	0.0952	0.107	0.115	0.124	0.135	0.149	0.165	0.176	0.198
in toluene	0.0273	0.0355	0.0422	0.0518	0.0605	0.0691	0.084	0.102	0.122
